Results published in patent publication US8710065B2, “Tricyclic inhibitors of kinases” (AbbVie Inc., priority 2011, dated 2014).

Target: T1, GST-tagged-Wee1 kinase (Homo sapiens, UniProt P30291)
T1 construct: purchased Carnabio (Carna Biosciences) 05-177
Experiment: Wee1 time-resolved fluorescence equilibrium binding assay (displacement of Oregon Green-labeled ATP-competitive kinase probe)
Conditions: read-out: Wee-1 inhibition (Ki)
How it was run: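 Time-resolved fluorescence equilibrium binding with GST-Wee1, measuring displacement of a rapidly reversible Oregon Green-labelled ATP-competitive probe by competitive inhibitors; values reported as Ki.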

T1 sequence (P30291 whole entry): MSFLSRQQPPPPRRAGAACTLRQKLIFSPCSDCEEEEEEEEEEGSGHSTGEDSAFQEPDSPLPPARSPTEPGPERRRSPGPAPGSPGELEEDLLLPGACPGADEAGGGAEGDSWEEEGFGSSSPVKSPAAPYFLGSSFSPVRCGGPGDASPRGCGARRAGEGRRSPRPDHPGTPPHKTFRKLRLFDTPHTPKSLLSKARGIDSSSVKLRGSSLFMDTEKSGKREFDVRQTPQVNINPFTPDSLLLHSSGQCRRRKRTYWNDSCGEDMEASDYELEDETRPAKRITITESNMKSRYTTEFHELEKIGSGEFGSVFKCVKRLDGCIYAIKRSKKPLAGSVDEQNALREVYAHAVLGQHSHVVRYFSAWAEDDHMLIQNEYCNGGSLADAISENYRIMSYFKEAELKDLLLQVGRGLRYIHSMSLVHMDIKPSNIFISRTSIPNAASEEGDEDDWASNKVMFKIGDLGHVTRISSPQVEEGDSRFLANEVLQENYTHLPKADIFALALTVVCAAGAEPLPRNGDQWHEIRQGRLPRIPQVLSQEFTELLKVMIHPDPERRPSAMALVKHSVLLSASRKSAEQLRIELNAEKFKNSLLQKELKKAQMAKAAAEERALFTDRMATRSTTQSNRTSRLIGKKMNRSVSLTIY

**Q.** Which Ki does the source give for O=C(C1CCCC1)N1Cc2cc(Nc3ncc4c(=O)n(-c5c(F)cccc5Cl)c5nccn5c4n3)ccc2C2(CC2)C1 [Example 267, 6-(2-chloro-6-fluorophenyl)-2-{[2′-(cyclopentylcarbonyl)-2′,3′-dihydro-1′H-spiro[cyclopropane-1,4′-isoquinolin]-7′-yl]amino}imidazo[1,2-a]pyrimido[5,4-e]pyrimidin-5(6H)-one] here?
**A.** < 10 nM

**Q.** Which Ki does the source give for O=c1c2cnc(Nc3ccc(NCCc4c[nH]cn4)cc3)nc2n2ccnc2n1-c1ccccc1Cl [Example 268, 6-(2-chlorophenyl)-2-[(4-{[2-(1H-imidazol-4-yl)ethyl]amino}phenyl)amino]imidazo[1,2-a]pyrimido[5,4-e]pyrimidin-5(6H)-one] here?
**A.** < 10 nM

**Q.** For O=c1c2cnc(Nc3ccc(NCCCn4ccnc4)cc3)nc2n2ccnc2n1-c1ccccc1Cl [Example 269, 6-(2-chlorophenyl)-2-[(4-{[3-(1H-imidazol-1-yl)propyl]amino}phenyl)amino]imidazo[1,2-a]pyrimido[5,4-e]pyrimidin-5(6H)-one], which Ki is on record?
**A.** < 10 nM

**Q.** For O=c1c2cnc(Nc3ccc(N4CCSCC4)cc3)nc2n2ccnc2n1-c1ccccc1Cl [Example 270, 6-(2-chlorophenyl)-2-{[4-(thiomorpholin-4-yl)phenyl]amino}imidazo[1,2-a]pyrimido[5,4-e]pyrimidin-5(6H)-one], which Ki is on record?
**A.** < 10 nM

**Q.** Which Ki does the source give for CC(C)NCCN(c1ccc(Nc2ncc3c(=O)n(-c4ccccc4Cl)c4nccn4c3n2)cc1)C(C)C [Example 271, 6-(2-chlorophenyl)-2-[(4-{propan-2-yl[2-(propan-2-ylamino)ethyl]amino}phenyl)amino]imidazo[1,2-a]pyrimido[5,4-e]pyrimidin-5(6H)-one] here?
**A.** < 10 nM

**Q.** With NC(=O)C1CCCN(c2ccc(Nc3ncc4c(=O)n(-c5ccccc5Cl)c5nccn5c4n3)cc2)C1 (centres unmarked) [Example 272, 1-(4-{[6-(2-chlorophenyl)-5-oxo-5,6-dihydroimidazo[1,2-a]pyrimido[5,4-e]pyrimidin-2-yl]amino}phenyl)piperidine-3-carboxamide] as the molecule, how does the Ki read?
**A.** 10 to 100 nM

**Q.** CN1CCCC1CCNc1ccc(Nc2ncc3c(=O)n(-c4c(Cl)cccc4Cl)c4nccn4c3n2)cc1 (centres unmarked) [Example 273, 6-(2,6-dichlorophenyl)-2-[(4-{[2-(1-methylpyrrolidin-2-yl)ethyl]amino}phenyl)amino]imidazo[1,2-a]pyrimido[5,4-e]pyrimidin-5(6H)-one] was tested. Which Ki did it give?
**A.** < 10 nM

**Q.** With CC(C)C(=O)N1Cc2cc(Nc3ncc4c(=O)n(-c5c(Cl)cccc5Cl)c5nccn5c4n3)ccc2C2(CC2)C1 [Example 274, 6-(2,6-dichlorophenyl)-2-{[2′-(2-methylpropanoyl)-2′,3′-dihydro-1′H-spiro[cyclopropane-1,4′-isoquinolin]-7′-yl]amino}imidazo[1,2-a]pyrimido[5,4-e]pyrimidin-5(6H)-one] as the molecule, how does the Ki read?
**A.** < 10 nM

**Q.** O=C(C1CC1)N1Cc2cc(Nc3ncc4c(=O)n(-c5c(Cl)cccc5Cl)c5nccn5c4n3)ccc2C2(CC2)C1 [Example 275, 2-{[2′-(cyclopropylcarbonyl)-2′,3′-dihydro-1′H-spiro[cyclopropane-1,4′-isoquinolin]-7′-yl]amino}-6-(2,6-dichlorophenyl)imidazo[1,2-a]pyrimido[5,4-e]pyrimidin-5(6H)-one] was tested. Which Ki did it give?
**A.** < 10 nM

**Q.** How did the Ki turn out when CC(C)(C)C(=O)N1Cc2cc(Nc3ncc4c(=O)n(-c5c(Cl)cccc5Cl)c5nccn5c4n3)ccc2C2(CC2)C1 [Example 276, 6-(2,6-dichlorophenyl)-2-{[2′-(2,2-dimethylpropanoyl)-2′,3′-dihydro-1′H-spiro[cyclopropane-1,4′-isoquinolin]-7′-yl]amino}imidazo[1,2-a]pyrimido[5,4-e]pyrimidin-5(6H)-one] was run?
**A.** < 10 nM

**Q.** O=c1c2cnc(Nc3cnc4c(c3)CNCC4)nc2n2ccnc2n1-c1c(F)cccc1Cl [Example 277, 6-(2-chloro-6-fluorophenyl)-2-(5,6,7,8-tetrahydro-1,6-naphthyridin-3-ylamino)imidazo[1,2-a]pyrimido[5,4-e]pyrimidin-5(6H)-one] was tested. Which Ki did it give?
**A.** 10 to 100 nM

**Q.** O=c1c2cnc(Nc3ccc4c(c3)CNCC43CC3)nc2n2ccnc2n1-c1cccc(O)c1Cl [Example 278, 6-(2-chloro-3-hydroxyphenyl)-2-(2′,3′-dihydro-1′H-spiro[cyclopropane-1,4′-isoquinolin]-7′-ylamino)imidazo[1,2-a]pyrimido[5,4-e]pyrimidin-5(6H)-one] was tested. Which Ki did it give?
**A.** < 10 nM

**Q.** With Cc1cc(O)ccc1-n1c(=O)c2cnc(Nc3ccc4c(c3)CNCC43CC3)nc2n2ccnc12 [Example 279, 2-(2′,3′-dihydro-1′H-spiro[cyclopropane-1,4′-isoquinolin]-7′-ylamino)-6-(4-hydroxy-2-methylphenyl)imidazo[1,2-a]pyrimido[5,4-e]pyrimidin-5(6H)-one] as the molecule, how does the Ki read?
**A.** < 10 nM

**Q.** How did the Ki turn out when CC1(C)CN(CC(F)F)Cc2cc(Nc3ncc4c(=O)n(-c5c(F)cccc5Cl)c5nccn5c4n3)ccc21 [Example 280, 6-(2-chloro-6-fluorophenyl)-2-{[2-(2,2-difluoroethyl)-4,4-dimethyl-1,2,3,4-tetrahydroisoquinolin-7-yl]amino}imidazo[1,2-a]pyrimido[5,4-e]pyrimidin-5(6H)-one] was run?
**A.** 10 to 100 nM

**Q.** How did the Ki turn out when CC1(C)CN(CCF)Cc2cc(Nc3ncc4c(=O)n(-c5c(F)cccc5Cl)c5nccn5c4n3)ccc21 [Example 281, 6-(2-chloro-6-fluorophenyl)-2-{[2-(2-fluoroethyl)-4,4-dimethyl-1,2,3,4-tetrahydroisoquinolin-7-yl]amino}imidazo[1,2-a]pyrimido[5,4-e]pyrimidin-5(6H)-one] was run?
**A.** < 10 nM

**Q.** Which Ki does the source give for O=c1c2cnc(Nc3ccc(N4CCC(N5CCCCC5)CC4)cc3)nc2n2ccnc2n1-c1c(Cl)cccc1Cl [Example 282, 2-{[4-(1,4′-bipiperidin-1′-yl)phenyl]amino}-6-(2,6-dichlorophenyl)imidazo[1,2-a]pyrimido[5,4-e]pyrimidin-5(6H)-one] here?
**A.** < 10 nM

**Q.** How did the Ki turn out when CN(C)[C@@H]1CCN(c2ccc(Nc3ncc4c(=O)n(-c5c(Cl)cccc5Cl)c5nccn5c4n3)cc2)C1 [Example 283, 6-(2,6-dichlorophenyl)-2-({4-[(3R)-3-(dimethylamino)pyrrolidin-1-yl]phenyl}amino)imidazo[1,2-a]pyrimido[5,4-e]pyrimidin-5(6H)-one] was run?
**A.** < 10 nM

**Q.** With CN(C)CCNc1ccc(Nc2ncc3c(=O)n(-c4c(Cl)cccc4Cl)c4nccn4c3n2)cc1 [Example 284, 6-(2,6-dichlorophenyl)-2-[(4-{[2-(dimethylamino)ethyl]amino}phenyl)amino]imidazo[1,2-a]pyrimido[5,4-e]pyrimidin-5(6H)-one] as the molecule, how does the Ki read?
**A.** < 10 nM

**Q.** O=c1c2cnc(Nc3ccc4c(c3)CN(S(=O)(=O)C3CC3)CC43CC3)nc2n2ccnc2n1-c1c(Cl)cccc1Cl [Example 285, 2-{[2′-(cyclopropylsulfonyl)-2′,3′-dihydro-1′H-spiro[cyclopropane-1,4′-isoquinolin]-7′-yl]amino}-6-(2,6-dichlorophenyl)imidazo[1,2-a]pyrimido[5,4-e]pyrimidin-5(6H)-one] was tested. Which Ki did it give?
**A.** < 10 nM

**Q.** For CC(C)S(=O)(=O)N1Cc2cc(Nc3ncc4c(=O)n(-c5c(Cl)cccc5Cl)c5nccn5c4n3)ccc2C2(CC2)C1 [Example 286, 6-(2,6-dichlorophenyl)-2-{[2′-(propan-2-ylsulfonyl)-2′,3′-dihydro-1′H-spiro[cyclopropane-1,4′-isoquinolin]-7′-yl]amino}imidazo[1,2-a]pyrimido[5,4-e]pyrimidin-5(6H)-one], which Ki is on record?
**A.** < 10 nM

**Q.** For CN1CCC(c2ccc(Nc3ncc4c(=O)n(-c5c(Cl)cccc5Cl)c5nccn5c4n3)cc2)CC1 [Example 287, 6-(2,6-dichlorophenyl)-2-{[4-(1-methylpiperidin-4-yl)phenyl]amino}imidazo[1,2-a]pyrimido[5,4-e]pyrimidin-5(6H)-one], which Ki is on record?
**A.** < 10 nM

**Q.** Which Ki does the source give for O=c1c2cnc(Nc3ccc(N4CCC5(CC4)CNC5)cc3)nc2n2ccnc2n1-c1c(Cl)cccc1Cl [Example 288, 2-{[4-(2,7-diazaspiro[3.5]non-7-yl)phenyl]amino}-6-(2,6-dichlorophenyl)imidazo[1,2-a]pyrimido[5,4-e]pyrimidin-5(6H)-one] here?
**A.** < 10 nM

**Q.** With O=c1c2cnc(Nc3ccc(N4CCCC4C(F)(F)F)cc3)nc2n2ccnc2n1-c1ccccc1Cl (centres unmarked) [Example 289, 6-(2-chlorophenyl)-2-({4-[2-(trifluoromethyl)pyrrolidin-1-yl]phenyl}amino)imidazo[1,2-a]pyrimido[5,4-e]pyrimidin-5(6H)-one] as the molecule, how does the Ki read?
**A.** 10 to 100 nM

**Q.** For O=c1c2cnc(Nc3ccc(OC4CCNCC4)cc3)nc2n2ccnc2n1-c1ccccc1Cl [Example 290, 6-(2-chlorophenyl)-2-{[4-(piperidin-4-yloxy)phenyl]amino}imidazo[1,2-a]pyrimido[5,4-e]pyrimidin-5(6H)-one], which Ki is on record?
**A.** < 10 nM

**Q.** For O=c1c2cnc(Nc3ccc(CC4CCNCC4)cc3)nc2n2ccnc2n1-c1ccccc1Cl [Example 291, 6-(2-chlorophenyl)-2-{[4-(piperidin-4-ylmethyl)phenyl]amino}imidazo[1,2-a]pyrimido[5,4-e]pyrimidin-5(6H)-one], which Ki is on record?
**A.** < 10 nM

**Q.** With O=c1c2cnc(Nc3ccc(N4CC5CNCC5C4)cc3)nc2n2ccnc2n1-c1ccccc1Cl (centres unmarked) [Example 292, 6-(2-chlorophenyl)-2-{[4-(hexahydropyrrolo[3,4-c]pyrrol-2(1H)-yl)phenyl]amino}imidazo[1,2-a]pyrimido[5,4-e]pyrimidin-5(6H)-one] as the molecule, how does the Ki read?
**A.** < 10 nM

**Q.** Which Ki does the source give for CNS(=O)(=O)Cc1ccc(Nc2ncc3c(=O)n(-c4ccccc4Cl)c4nccn4c3n2)cc1 [Example 293, 1-(4-{[6-(2-chlorophenyl)-5-oxo-5,6-dihydroimidazo[1,2-a]pyrimido[5,4-e]pyrimidin-2-yl]amino}phenyl)-N-methylmethanesulfonamide] here?
**A.** 10 to 100 nM

**Q.** For CCN(CC)S(=O)(=O)c1ccc(Nc2ncc3c(=O)n(-c4ccccc4Cl)c4nccn4c3n2)cc1 [Example 294, 4-{[6-(2-chlorophenyl)-5-oxo-5,6-dihydroimidazo[1,2-a]pyrimido[5,4-e]pyrimidin-2-yl]amino}-N,N-diethylbenzenesulfonamide], which Ki is on record?
**A.** 10 to 100 nM

**Q.** O=c1c2cnc(Nc3ccc4c(c3)CC(NC3CC3)C4)nc2n2ccnc2n1-c1c(Cl)cccc1Cl (centres unmarked) [Example 295, 2-{[2-(cyclopropylamino)-2,3-dihydro-1H-inden-5-yl]amino}-6-(2,6-dichlorophenyl)imidazo[1,2-a]pyrimido[5,4-e]pyrimidin-5(6H)-one] was tested. Which Ki did it give?
**A.** < 10 nM
